Measured values as given in US5602229A, “Pentapeptide antibiotics” (Gruppo Lepetit S.p.A., priority 1989, dated 1997).
Where two headings read alike, the source gives them in different places.

Key:
[1] = system: Staphylococcus aureus Tour; assay: In vitro MIC, two-fold dilution test in microtiter; format: cell-based; details: Oxoid ISO-SENSITEST broth, inoculum about 10^4 CFU/ml, 18-24 h at 37° C.
Protocol: (§1) Broth cultures are diluted enough so that the final inoculum is about 10^4 colony forming units/ml (CFU/ml).

[2] = system: Streptococcus pneumoniae UC41; assay: In vitro MIC, two-fold dilution test in microtiter; format: cell-based; details: Difco Todd-Hewitt broth, inoculum about 10^4 CFU/ml, 18-24 h at 37° C.
Protocol: as §1

[3] = system: Strept. pyogenes C 203; assay: In vitro MIC, two-fold dilution test in microtiter; format: cell-based, Streptococcus pyogenes; details: Difco Todd-Hewitt broth, inoculum about 10^4 CFU/ml, 18-24 h at 37° C.
Protocol: as §1

[4] = Acid-base titration (pKa); format: physicochemical
Protocol: Acid-base titrations were carried out under the following conditions: the sample was dissolved in a mixture methyl cellosolve/H2 O 4/1, then an excess of 0.01M HCl in the same solvent mixture was added and the resulting solution was titrated with 0.01N NaOH.

[5] = system: Staphylococcus epidermidis ATCC 12228; assay: In vitro MIC, two-fold dilution test in microtiter; format: cell-based; details: Oxoid ISO-SENSITEST broth, inoculum about 10^4 CFU/ml, 18-24 h at 37° C.
Protocol: as §1

[6] = system: Streptococcus faecalis ATCC 7080; assay: In vitro MIC, two-fold dilution test in microtiter; format: cell-based; details: Oxoid ISO-SENSITEST broth, inoculum about 10^4 CFU/ml, 18-24 h at 37° C.
Protocol: as §1

[7] = system: Streptococcus mitis 796; assay: In vitro MIC, two-fold dilution test in microtiter; format: cell-based; details: inoculum about 10^4 CFU/ml, 18-24 h at 37° C.
Protocol: as §1

[8] = methyl cellosolve/H2O 4/1, excess 0.01M HCl, titrated with 0.01N NaOH

Substance	MIC, STAPH. AUREUS TOUR [1] [micrograms/ml]	MIC, STREPT. PNEUMONIAE UC 41 [2] [micrograms/ml]	MIC, STREPT. PYOGENES C 203 [3] [micrograms/ml]	pKa1 [4]	pKa2 [4]	pKa3 [4]	pKa1 [4, 8]	pKa2 [4, 8]	pKa3 [4, 8]	MIC, STAPH. EPIDERMIDIS ATCC 12228 [5] [micrograms/ml]	MIC, STREPT. FAECALIS ATCC 7080 [6] [micrograms/ml]	MIC, STREPT. MITIS 796 [7] [micrograms/ml]
reductive cleavage product of antibiotic A/40926 [Example 9]	16	16	2	4.5	5.9	7.5						
reductive cleavage product of antibiotic L 17046 [Example 4]							4.6	5.8	7.5			
reductive cleavage product of antibiotic L 17054 [Example 3]							4.7					
reductive cleavage product of antibiotic L 17392 [Example 5]	4	16	8	4.5	5.5					2	16	16
reductive cleavage product of ristocetin [Example 8]								6.2	7.8			
reductive cleavage product of teicoplanin A2 component 2 [Example 2]	8	4	1	4.1	5.9	7.3				2	4	4
reductive cleavage product of vancomycin [Example 6]	16		8							32	16	
